One may read the pIC50 as the IC50 on a negative log10 scale, so that one unit is a factor of ten. High values mean a low IC50, low ones a high IC50. The pKi is the Ki on a negative log10 scale, so that one unit is a factor of ten. Low readings indicate a large Ki, high ones a small Ki.

Where a chain is given by its changes, count along the chain named. pIC50, pKi: −log10 of the molar value. Marks after values point to notes of the source that are not given here.

Assay [1] addresses T1, Gly137Asp LcαE7 (Gly137Asp variant of αE7 carboxylesterase) (Lucilia cuprina, UniProt Q25252, G137D).
T1 construct: GenBank number is of the wild-type parent
The assay can be described thus: Inhibition of Gly137Asp αE7 (competition assay, hydrolysis of 4-nitrophenol butyrate), dose-response curves of FIG. 8. The assay is classed as biochemical. Here is the method: FIG. 8 presents dose-response curves for the inhibition of Glyl37Asp αE7. Inhibition of the hydrolysis of […] was determined for phenyl boronic acid (PBA) and compounds 1-5 and 3.1-3.12. Three (technical) replicate measurements of enzyme activity were performed for each concentration of boronic acid. The concentration of boronic acid required to inhibit 50% of activity (IC50) was determined by fitting a sigmoidal dose-response curve to plots of percentage inhibition. The curve was constrained to 0 (bottom) and 100% (top) inhibition with a variable Hill slope. […]
His6-tagged proteins were expressed in BL21(DE3) E. coli (Invitrogen) at 26° C. for 18 hours. Cells were collected by centrifugation, resuspended in lysis buffer (300 mM NaCl, 10 mM imidazole, 50 mM HEPES pH 7.5) and lysed by sonication. Cell debris was pelleted by centrifugation and the soluble fraction was loaded onto a HisTrap-HP Ni-Sepharose column (GE Healthcare). Bound protein was eluted with lysis buffer supplemented with 300 mM imidazole. Fractions containing the eluted protein were concentrated with a 30 kDa molecular mass cutoff centrifuge concentrator (Amicon) and loaded onto a HiLoad 26/60 Superdex-200 size-exclusion column (GE Healthcare) pre-equilibrated with 150 mM NaCl, 20 mM HEPES pH 7.5. Eluted fractions containing the monomeric protein were pooled for enzyme inhibition assays or crystallization. Protein concentration was determined by measuring the absorbance at 280 nm with an extinction coefficient calculated using the Protparam online server (Gasteiger, E. et al. Protein identification and analysis tools on the ExPASy server. Proteomics Protoc. Handb. 571-607 (2005). doi:10.1385/1-59259-890-0:571).
(§1) Inhibition of wild-type αE7 and the Gly137Asp αE7 variant was determined by a competition assay between the native-substrate analogue 4-nitrophenol butyrate (Sigma) and the boronic acid compounds. Initially, the Michalis constant (KM) with 4-nitrophenol butyrate was measured for both enzymes to determine an appropriate concentration of substrate for use in the competition assays. Formation of the 4-nitrophenolate product of hydrolysis was monitored at 405 nm in the presence of enzyme and eight different concentrations of substrate. 4-nitrophenol butyrate was prepared in methanol to 100 mM and serially diluted 1-in-2 to achieve concentrations from 100 mM to 0.8 mM. Enzyme stocks were prepared in 4 mg/ml bovine serum albumin (Sigma) to maintain enzyme stability. Reactions were prepared by pipetting 178 μl assay buffer (100 mM NaCl, 20 mM HEPES pH 7.5) and 2 μl substrate (final concentrations of 1000 to 8 μM) into 300 μl wells of a 96-well plate. The reaction was initiated by the addition of 20 μl enzyme (final concentration 2.5 nM for wildtype αE7 and 4 nM for Gly137Asp αE7). Product formation was monitored for four minutes at room temperature using an Epoch microplate spectrophotometer (BioTek) and the initial rates of ester hydrolysis were determined by linear regression using GraphPad Prism. The Michalis constant was determined by fitting the initial rates to the Michalis-Menton equation (FIG. 10).
Enzyme inhibition with the boronic acid compounds was determined by assaying the initial rate of 4-nitrophenol butyrate hydrolysis in the presence of either neat DMSO or the boronic acid compounds in DMSO. Compounds were prepared by serially diluting 1-in-3 an initial 10 mM stock to achieve concentrations from 10 mM to 2 nM. Reactions were prepared by pipetting 178 μl assay buffer supplemented with substrate to a final concentration equal to the KM of the enzyme (15 μM for wildtype αE7 and 250 μM for Gly137Asp αE7) into wells of a 96-well plate. 2 μl neat DMSO or 2 μl serially diluted inhibitor (final concentrations of 100 μM to 20 pM) were added to the wells. The reaction was initiated by the addition of 20 μl enzyme (final concentration 0.5 nM for wildtype αE7 and 10 nM for Glyl37Asp αE7). […]

For assay [2], the target named is T2, wildtype LcαE7 (Lucilia cuprina, UniProt Q25252).
T2 sequence (Q25252 1-570): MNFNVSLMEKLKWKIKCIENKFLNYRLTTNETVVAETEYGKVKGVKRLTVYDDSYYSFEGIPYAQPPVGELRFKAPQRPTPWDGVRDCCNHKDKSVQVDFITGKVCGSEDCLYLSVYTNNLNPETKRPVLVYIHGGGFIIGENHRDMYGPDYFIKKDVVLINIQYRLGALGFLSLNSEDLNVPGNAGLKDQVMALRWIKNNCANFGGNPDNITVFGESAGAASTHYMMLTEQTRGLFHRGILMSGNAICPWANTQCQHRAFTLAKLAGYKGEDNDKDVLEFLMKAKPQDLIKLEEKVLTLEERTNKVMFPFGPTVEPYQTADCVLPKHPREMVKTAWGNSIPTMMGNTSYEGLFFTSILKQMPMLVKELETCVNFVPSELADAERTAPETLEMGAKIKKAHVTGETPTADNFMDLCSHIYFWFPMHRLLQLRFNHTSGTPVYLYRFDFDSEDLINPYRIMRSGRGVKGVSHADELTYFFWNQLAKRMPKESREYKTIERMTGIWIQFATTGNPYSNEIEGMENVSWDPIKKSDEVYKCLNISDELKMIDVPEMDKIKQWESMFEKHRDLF
The assay can be described thus: Enzyme inhibition assay with 4-nitrophenol butyrate, wild-type. The assay is classed as biochemical. Here is the method:
Wild-type LcαE7 was heterologously expressed in Escherichia coli and purified using metal ion affinity and size exclusion chromatography. The potency of the boronic acids was determined by enzymatic assays of recombinant LcαE7 with the model carboxylester substrate 4-nitrophenol butyrate.
as §1
(§2) Enzyme inhibition with the boronic acid compounds was determined by assaying the initial rate of 4-nitrophenol butyrate hydrolysis in the presence of either neat DMSO or the boronic acid compounds in DMSO. Compounds were prepared by serially diluting 1-in-3 an initial 10 mM stock to achieve concentrations from 10 mM to 2 nM. Reactions were prepared by pipetting 178 μl assay buffer supplemented with substrate to a final concentration equal to the KM of the enzyme (15 μM for wildtype αE7 and 250 μM for Gly137Asp αE7) into wells of a 96-well plate. 2 μl neat DMSO or 2 μl serially diluted inhibitor (final concentrations of 100 μM to 20 pM) were added to the wells. The reaction was initiated by the addition of 20 μl enzyme (final concentration 0.5 nM for wildtype αE7 and 10 nM for Glyl37Asp αE7). Product formation was monitored for four minutes at room temperature and the initial rates of ester hydrolysis were determined by linear regression. To determine the concentration of boronic acid compounds required to inhibit 50% of esterase activity (IC50), a four-parameter sigmoidal dose-response curve was fitted to percentage inhibition using GraphPad Prism (FIGS. 7 and 8). Ki values were determined using the Cheng-Prusoff equation assuming competitive inhibition (Yung-Chi, C. & Prusoff W. H. Relationship between the inhibition constant (KI) and the concentration of inhibitor which causes 50 percent inhibition (150) of an enzymatic reaction. Biochem. Pharmacol. 22, 3099-3108 (1973)).

Assay [3] deals with T3, Gly137Asp LcαE7 (Lucilia cuprina, UniProt Q25252, G137D).
T3 sequence (Q25252 1-570 G137D): T2 sequence (Q25252 1-570) with G137D
The assay can be described thus: Enzyme inhibition assay with 4-nitrophenol butyrate, Gly137Asp variant. It counts as biochemical. Here is the method:
as §1, §2
The two most common CBE-mediated insecticide resistance mechanisms involve increased protein expression, or mutation to gain new catalytic (OP-hydrolase) functions. Compounds 1 to 5 were tested against the resistance associated Gly137Asp variant of LcαE7^17,27 (Table 1). The Glyl37Asp mutation is located in the oxyanion hole and positions a new general base in the active site to catalyze dephosphorylation of the catalytic serine. Thus, compounds that inhibit WT LcαE7 as well as this common resistance associated Glyl37Asp variant would increase the efficacy of OPs by targeting both detoxification routes. Encouraged by the activity of the boronic acids 1 to 5, the compounds were tested against the Gly137Asp variant of LcαE7 (Table 1).

The target of assay [4] is Culex quinquefasciatus CBE (Culex quinquefasciatus, UniProt Q23734). The assay can be described thus: Inhibition of insect CBEs, 4-NPB substrate. The note with it: n=3. The assay is classed as biochemical. Here is the method:
(§3) Assays were performed with 4-NPB as the substrate.

Assay [5] has as its target Aedes aegypti CBE. In words: Inhibition of insect CBEs, 4-NPB substrate. The note with it: n=3. It counts as biochemical. Here is the method: as §3
In assay [6] the target is Anopheles gambiae CBE. In words: Inhibition of insect CBEs, 4-NPB substrate. It counts as biochemical. The settings on record: n=3. Here is the method: as §3
In assay [7] the test system is Lucilia cuprina larvae, field strain Tara resistant to diazinon. The assay can be described thus: Lucilia cuprina larval bioassay (pupation rate), field strain. The assay is classed as in vivo. The text has this: Diazinon resistance is typically associated with the Gly137Asp mutation/resistance allele. […] This is consistent with previous results showing that duplications of the chromosomal region containing αE7 have occurred, meaning that resistant strains now carry copies of both WT and Glyl37Asp LcαE7.
(§4) Two strains of L. cuprina were used: 1) a laboratory reference drug-susceptible strain, LS, derived from collections in the Australian Capital Territory over 40 years ago, with no history of exposure to insecticides; and 2) a field-collected strain, Tara, resistant to diazinon and diflubenzuron (Levot, G. W. & Sales, N. New high level resistance to diflubenzuron detected in the Australian sheep blowfly, Lucilia cuprina (Wiedemann) (Diptera: Calliphoridae). Gen. Appl. Entomol. 31, 43-46 (2002)). The LcαE7 gene was sequenced in each of the strains. Briefly, genomic DNA was prepared from 20 adult female flies from each strain using the DNeasy Blood and Tissue kit (Qiagen). PCR was performed with primers specific to the LcαE7 gene, and the product was cloned into a pGEM-T EASY vector (Promega). Eight clones of the susceptible strain and 10 clones of the resistant strain were sequenced using M13 forward and reverse primers.
The effect of compounds 2, 3, 5, 3.9 and 3.10 on the development of blowfly larvae in the presence of diazinon/malathion was assessed using a bioassay system in which larvae were allowed to develop from the first instar stage until pupation on cotton wool impregnated with diazinon/malathion over a range of concentrations, in the presence or absence of the compounds at constant concentrations (Kotze, A. C. et al. Histone deacetylase enzymes as drug targets for the control of the sheep blowfly, Lucilia cuprina. Int. J. Parasitol. Drugs Drug Resist. 5, 201-208 (2015)). Each experiment utilized 50 larvae at each diazinon/malathion concentration. Experiments were replicated three times for diazinon, and twice for malathion. The insecticidal effects were defined by measuring the pupation rate. […] Compounds were also without diazinon or malathion at 1 mg per assay.

The subject of assay [8] is Lucilia cuprina larvae, laboratory drug-susceptible strain LS. The assay can be described thus: Lucilia cuprina larval bioassay (pupation rate), laboratory strain. The settings on record: laboratory (LS) strain; pupation rate; boronic acid, where present, at 1 mg/assay. The assay is classed as in vivo. Here is the method: Inhibitor efficacy was determined by treating larvae with diazinon over a range of concentrations, in the presence or absence of the compounds at constant concentrations, and comparing pupation rates.
as §4
Each experiment utilized 50 larvae at each diazinon/malathion concentration. Experiments were replicated three times for diazinon, and twice for malathion. The insecticidal effects were defined by measuring the pupation rate. […] Compounds were also without diazinon or malathion at 1 mg per assay.

For the molecule `OB(O)c1cc(Cl)cc(N2CCCC2)c1` [Compound 3.2], in assay [1], the pIC50 was 6.40. Also, the pKi in assay [2] is 9.46; in assay [3] it was 6.68.

Take `O=C(Nc1ccccc1Cl)c1cc(B(O)O)ccc1Cl` [Compound C2]: the pKi was 5.44 in assay [4], 4.43 in assay [5] and 6.38 in assay [6].

Regarding `OB(O)c1cc2ccc(OCc3ccccc3)cc2[nH]1` [Compound C10], the pKi was 6.72 in assay [4], 8.00 in assay [5] and 7.10 in assay [6].

For the molecule `OB(O)c1ccc(COc2ccc(Cl)c3ccccc23)cc1` [Compound C21], the pKi in assay [4] is 6.85; in assay [5] it was 5.00; in assay [6], 6.70.

Turning to `CCOP(=S)(OCC)Oc1cc(C)nc(C(C)C)n1` [Dz alone, diazinon], the “RR = resistance ratio” value in assay [7] (EC50 with the field strain/EC50 for Dz alone for the laboratory strain) is 2.86 ^#. In addition, the “diazinon EC50 for the field strain compared to the laboratory strain” value in assay [7] (absence of the boronic acids, fold higher) is 2.9 fold. For the same molecule, the “Diazinon dose response EC50” value in assay [7] (field (Tara) strain, pupation rate, boronic acid, where present, at 1 mg/assay) worked out at 2.29 μg/assay; in assay [8] it was 0.80 μg/assay.

With `CCOC(=O)CC(SP(=S)(OC)OC)C(=O)OCC` (centres unmarked) [Mal alone, malathion, reference compound], the “Malathion dose response EC50” value in assay [8] is reported as 2.06 μg/assay.

Values taken from US20190327974A1, “SYNERGISTS FOR IMPROVED PESTICIDES” (priority 2017, published 2019).
